# Paper PMC12661400, “Oral bioavailable ITRI-148 degrades androgen receptor variants and overcomes antiandrogen resistance in advanced prostate cancer” (Neoplasia (New York, N.Y.), 2025)
# Biological target: T1, AR(H875Y) (Homo sapiens, UniProt P10275, H875Y)
# T1 construct: expressed in transfected cells; host or cells: DU145
# T1 sequence (P10275 1-920 H875Y): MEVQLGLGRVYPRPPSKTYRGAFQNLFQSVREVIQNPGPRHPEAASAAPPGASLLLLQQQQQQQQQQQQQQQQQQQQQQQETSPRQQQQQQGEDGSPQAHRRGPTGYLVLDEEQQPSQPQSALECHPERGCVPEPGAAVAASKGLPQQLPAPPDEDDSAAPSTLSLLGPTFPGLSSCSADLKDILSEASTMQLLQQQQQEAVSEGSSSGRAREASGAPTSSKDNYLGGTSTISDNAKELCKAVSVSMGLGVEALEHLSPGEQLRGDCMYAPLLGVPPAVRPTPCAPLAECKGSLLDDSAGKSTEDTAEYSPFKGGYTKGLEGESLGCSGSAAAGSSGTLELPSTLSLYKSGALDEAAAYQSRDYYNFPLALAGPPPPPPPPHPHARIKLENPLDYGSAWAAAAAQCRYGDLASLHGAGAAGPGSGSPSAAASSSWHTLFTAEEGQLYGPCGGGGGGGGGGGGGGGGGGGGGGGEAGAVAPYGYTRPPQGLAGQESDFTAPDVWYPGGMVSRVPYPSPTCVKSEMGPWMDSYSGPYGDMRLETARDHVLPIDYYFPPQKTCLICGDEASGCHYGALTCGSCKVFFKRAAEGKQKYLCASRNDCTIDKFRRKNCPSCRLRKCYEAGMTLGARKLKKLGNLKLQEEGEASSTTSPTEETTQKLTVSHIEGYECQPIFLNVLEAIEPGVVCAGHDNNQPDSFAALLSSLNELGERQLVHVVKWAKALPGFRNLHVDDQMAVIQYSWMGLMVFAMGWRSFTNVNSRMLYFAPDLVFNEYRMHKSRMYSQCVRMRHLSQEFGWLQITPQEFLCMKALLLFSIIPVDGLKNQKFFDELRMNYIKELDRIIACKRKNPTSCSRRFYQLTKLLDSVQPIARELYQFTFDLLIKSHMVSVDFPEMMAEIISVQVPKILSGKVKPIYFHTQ
# Experiment: Degradation of ectopic Myc-tagged AR mutant in DU145 cells (western blot)
# Assay type: cell-based
# Conditions: 10 μM, 24 hours
# Source text: pLenti4/TO/Flag-AR and pLenti4/TO/Flag-AR(∆LBD) plasmids are as described previously. To generate pLenti4/TO/Flag-AR-V7 plasmid, the DNA fragment of AR-V7 was amplified from pEGFP-C1-AR V7, a gift from Michael A Mancini (Addgene plasmid # 86856), and inserted into the pLenti4/TO plasmid carrying a N-terminal Flag tag between BamH1 and XhoI. The AR(L702H) and AR(H875Y) mutants were generated by site-directed mutagenesis of pCMV-Myc-AR, which is previously constructed and described in [22]. Primers used in the cloning and mutagenesis are: […]
# Cell lysis, Western blotting, and AR ubiquitination were performed as described in [17]. […]
# Fig. 1 ITRI-148 induces degradation of both AR and AR-V7 proteins in CRPC cells. […] AR-V7 expression was detected using an anti-Flag antibody. […] An N-terminal AR antibody was used to detect both full-length AR and LBD-truncated variants (AR-V(ΔLBD)) in CWR22Rv1 cells, while AR-V7 was detected using an AR-V7-specific antibody. DC₅₀ values were calculated from normalized band intensities, and Dₘₐₓ represents the maximal degradation achieved at 10 μM ITRI-148. (D) Immunofluorescence staining of AR after 24 or 48 hours of ITRI-148 treatment, detected using an N-terminal AR antibody. […] Quantified AR levels are as indicated. […]
structure (smiles),measurement,value
O=C1CCC(N2C(=O)c3cccc(NCC(=O)N4CCC(N5CCC(C#Cc6ccc(C7CCN(C8=Nn9c(nnc9C(F)(F)F)CC8)CC7)cc6)CC5)CC4)c3C2=O)C(=O)N1 (stereo not shown) [ITRI-148],degradation of Myc-tagged AR mutant H875Y,degraded
